Among the data in article PMC10660663 are ring closure, isolated yield values, retold here.

A short description of one series: Enantiospecific SuFEx S-O bond formation: enantiopure di-sulfonimidoyl fluoride + sodium diphenolate (1:1), [1+1] macrocyclisation, one pot. The following applies: the molecule shown is the open-chain precursor; 21-membered ring; MeCN; 12.5 mM; 60.0 °C; 6.0 h.
With `Cc1ccc([S@](=O)(F)=NC(=O)c2ccc(C(=O)N=[S@](=O)(Oc3ccc(Oc4ccc([O-])cc4)cc3)c3ccc(C)cc3)cc2)cc1` [(R,R)-3v], the ring closure, isolated yield was 26%.

Turning to `Cc1ccc([S@](=O)(F)=NC(=O)c2ccc(C(=O)N=[S@](=O)(Oc3ccc(Cc4ccc([O-])cc4)cc3)c3ccc(C)cc3)cc2)cc1` [(R,R)-3u], the ring closure, isolated yield was 42%. Still for that read-out and setting: to `Cc1ccc([S@@](=O)(F)=NC(=O)c2ccc(C(=O)N=[S@@](=O)(Oc3ccc(Oc4ccc([O-])cc4)cc3)c3ccc(C)cc3)cc2)cc1` [(S,S)-3v] belongs 34%.

For `Cc1ccc([S@@](=O)(F)=NC(=O)c2ccc(C(=O)N=[S@@](=O)(Oc3ccc(Cc4ccc([O-])cc4)cc3)c3ccc(C)cc3)cc2)cc1` [(S,S)-3u], the ring closure, isolated yield came out at 54%. Still for that read-out and setting: the same measure for `Cc1ccc([S@](=O)(F)=NC(=O)c2ccc(C(=O)N=[S@](=O)(Oc3ccc(C(c4ccc([O-])cc4)(C(F)(F)F)C(F)(F)F)cc3)c3ccc(C)cc3)cc2)cc1` [(R,R)-3x]: 35%; for `Cc1ccc([S@](=O)(F)=NC(=O)c2ccc(C(=O)N=[S@](=O)(Oc3ccc(C(C)(C)c4ccc([O-])cc4)cc3)c3ccc(C)cc3)cc2)cc1` [(R,R)-3w]: 54%. Take `Cc1ccc([S@@](=O)(F)=NC(=O)c2ccc(C(=O)N=[S@@](=O)(Oc3ccc(C(C)(C)c4ccc([O-])cc4)cc3)c3ccc(C)cc3)cc2)cc1` [(S,S)-3w]: the ring closure, isolated yield was found to be 62%.

Turning to `Cc1ccc([S@@](=O)(F)=NC(=O)c2ccc(C(=O)N=[S@@](=O)(Oc3ccc(C(c4ccc([O-])cc4)(C(F)(F)F)C(F)(F)F)cc3)c3ccc(C)cc3)cc2)cc1` [(S,S)-3x], the ring closure, isolated yield stood at 33%. Consider `Cc1ccc([S@@](=O)(F)=NC(=O)c2cccc(C(=O)N=[S@@](=O)(Oc3ccc(SSc4ccc([O-])cc4)cc3)c3ccc(C)cc3)n2)cc1` [(S,S)-3r], for which the ring closure, isolated yield amounted to 71%.

The series is the same for the next values; noted with them: the molecule shown is the open-chain precursor; 22-membered ring; MeCN; 12.5 mM; 60.0 °C; 6.0 h.
Take `Cc1ccc([S@@](=O)(F)=NC(=O)c2ccc(C(=O)N=[S@@](=O)(Oc3ccc(SSc4ccc([O-])cc4)cc3)c3ccc(C)cc3)cc2)cc1` [(S,S)-3a]: the ring closure, isolated yield was found to be 93%. As for `Cc1ccc([S@@](=O)(F)=NC(=O)c2ccc(C(=O)N=[S@@](=O)(Oc3ccccc3CNCCNCc3ccccc3[O-])c3ccc(C)cc3)cc2)cc1` [(S,S)-3f], the ring closure, isolated yield amounted to 75%.

The series is the same for the next values; noted with them: the molecule shown is the open-chain precursor; 23-membered ring; MeCN; 12.5 mM; 60.0 °C; 6.0 h.
As to `Cc1ccc([S@@](=O)(F)=NC(=O)c2ccc(C(=O)N=[S@@](=O)(Oc3cccc(Oc4cccc(Oc5cccc([O-])c5)c4)c3)c3ccc(C)cc3)cc2)cc1` [(S,S)-3d], the ring closure, isolated yield was 71%.

The same series, now with this note: the molecule shown is the open-chain precursor; 25-membered ring; MeCN; 12.5 mM; 60.0 °C; 6.0 h.
For `Cc1ccc([S@@](=O)(F)=NC(=O)c2ccc(-c3ccc(C(=O)N=[S@@](=O)(Oc4ccc(Cc5ccc([O-])cc5)cc4)c4ccc(C)cc4)cc3)cc2)cc1` [[1+1] of 4f (not observed)], the ring closure, isolated yield came to 0%. On the same count and under the same terms, the same measure for `Cc1ccc([S@@](=O)(F)=NC(=O)c2ccc(-c3ccc(C(=O)N=[S@@](=O)(Oc4ccc(Oc5ccc([O-])cc5)cc4)c4ccc(C)cc4)cc3)cc2)cc1` [[1+1] of 4g (not observed)]: 0%; for `Cc1ccc([S@](=O)(F)=NC(=O)c2ccc(C(=O)N=[S@](=O)(Oc3ccc(C(C)(C)c4cccc(C(C)(C)c5ccc([O-])cc5)c4)cc3)c3ccc(C)cc3)cc2)cc1` [(R,R)-3c]: 35%; for `Cc1ccc([S@@](=O)(F)=NC(=O)c2ccc(-c3ccc(C(=O)N=[S@@](=O)(Oc4ccc(C(c5ccc([O-])cc5)(C(F)(F)F)C(F)(F)F)cc4)c4ccc(C)cc4)cc3)cc2)cc1` [[1+1] of 4j (not observed)]: 0%. The same measure, in the same setting: the same measure for `Cc1ccc([S@@](=O)(F)=NC(=O)c2ccc(C(=O)N=[S@@](=O)(Oc3ccc(C(C)(C)c4cccc(C(C)(C)c5ccc([O-])cc5)c4)cc3)c3ccc(C)cc3)cc2)cc1` [(S,S)-3c]: 42%; for `Cc1ccc([S@@](=O)(F)=NC(=O)c2ccc(-c3ccc(C(=O)N=[S@@](=O)(Oc4ccc(C(C)(C)c5ccc([O-])cc5)cc4)c4ccc(C)cc4)cc3)cc2)cc1` [[1+1] of 4i (not observed)]: 0%.

The same series, now with this note: the molecule shown is the open-chain precursor; 26-membered ring; MeCN; 12.5 mM; 60.0 °C; 6.0 h.
Consider `Cc1ccc([S@](=O)(F)=NC(=O)c2ccc(Oc3ccc(C(=O)N=[S@](=O)(Oc4ccc(Oc5ccc([O-])cc5)cc4)c4ccc(C)cc4)cc3)cc2)cc1` [(R,R)-3Ab], for which the ring closure, isolated yield worked out at 10%.

Consider `Cc1ccc([S@@](=O)(F)=NC(=O)c2ccc(Oc3ccc(C(=O)N=[S@@](=O)(Oc4ccc(Oc5ccc([O-])cc5)cc4)c4ccc(C)cc4)cc3)cc2)cc1` [(S,S)-3Ab], for which the ring closure, isolated yield came to 14%.

Turning to `Cc1ccc([S@](=O)(F)=NC(=O)c2ccc(Oc3ccc(C(=O)N=[S@](=O)(Oc4ccc(Cc5ccc([O-])cc5)cc4)c4ccc(C)cc4)cc3)cc2)cc1` [(R,R)-3Aa], the ring closure, isolated yield stood at 12%. On the same count and under the same terms, to `Cc1ccc([S@](=O)(F)=NC(=O)c2ccc(Oc3ccc(C(=O)N=[S@](=O)(Oc4ccc(C(c5ccc([O-])cc5)(C(F)(F)F)C(F)(F)F)cc4)c4ccc(C)cc4)cc3)cc2)cc1` [(R,R)-3Ad] belongs 12%. On the same count and under the same terms, the same measure for `Cc1ccc([S@](=O)(F)=NC(=O)c2ccc(Oc3ccc(C(=O)N=[S@](=O)(Oc4ccc(C(C)(C)c5ccc([O-])cc5)cc4)c4ccc(C)cc4)cc3)cc2)cc1` [(R,R)-3Ac]: 14%.

Take `Cc1ccc([S@@](=O)(F)=NC(=O)c2ccc(Oc3ccc(C(=O)N=[S@@](=O)(Oc4ccc(C(C)(C)c5ccc([O-])cc5)cc4)c4ccc(C)cc4)cc3)cc2)cc1` [(S,S)-3Ac]: the ring closure, isolated yield was 16%. Take `Cc1ccc([S@@](=O)(F)=NC(=O)c2ccc(Oc3ccc(C(=O)N=[S@@](=O)(Oc4ccc(C(c5ccc([O-])cc5)(C(F)(F)F)C(F)(F)F)cc4)c4ccc(C)cc4)cc3)cc2)cc1` [(S,S)-3Ad]: the ring closure, isolated yield stood at 20%. Regarding `Cc1ccc([S@@](=O)(F)=NC(=O)c2ccc(Oc3ccc(C(=O)N=[S@@](=O)(Oc4ccc(Cc5ccc([O-])cc5)cc4)c4ccc(C)cc4)cc3)cc2)cc1` [(S,S)-3Aa], the ring closure, isolated yield was 12%.

The same series, now with this note: the molecule shown is the open-chain precursor; 28-membered ring; MeCN; 12.5 mM; 60.0 °C; 6.0 h.
Turning to `Cc1ccc([S@@](=O)(F)=NC(=O)c2ccc(Oc3ccc(C(=O)N=[S@@](=O)(Oc4cccc(Oc5cccc(Oc6cccc([O-])c6)c5)c4)c4ccc(C)cc4)cc3)cc2)cc1` [(S,S)-3k], the ring closure, isolated yield worked out at 85%.

Staying with this series, now noted: the molecule shown is the open-chain precursor; 29-membered ring; MeCN; 12.5 mM; 60.0 °C; 6.0 h.
For `Cc1ccc([S@](=O)(F)=NC(=O)c2ccc(-c3ccc(C(=O)N=[S@](=O)(Oc4ccc(C(C)(C)c5cccc(C(C)(C)c6ccc([O-])cc6)c5)cc4)c4ccc(C)cc4)cc3)cc2)cc1` [(R,R)-3y], the ring closure, isolated yield was 27%. The same measure, in the same setting: to `Cc1ccc([S@@](=O)(F)=NC(=O)c2ccc(-c3ccc(C(=O)N=[S@@](=O)(Oc4ccc(C(C)(C)c5cccc(C(C)(C)c6ccc([O-])cc6)c5)cc4)c4ccc(C)cc4)cc3)cc2)cc1` [(S,S)-3y] belongs 37%.

The series is the same for the next values; noted with them: the molecule shown is the open-chain precursor; 30-membered ring; MeCN; 12.5 mM; 60.0 °C; 6.0 h.
`Cc1ccc([S@@](=O)(F)=NC(=O)c2ccc(Oc3ccc(C(=O)N=[S@@](=O)(Oc4ccc(C(C)(C)c5cccc(C(C)(C)c6ccc([O-])cc6)c5)cc4)c4ccc(C)cc4)cc3)cc2)cc1` [(S,S)-3o (diphenyl ether)]: the ring closure, isolated yield is 64%. Same read-out and setting: the same measure for `Cc1ccc([S@](=O)(F)=NC(=O)c2ccc(Oc3ccc(C(=O)N=[S@](=O)(Oc4ccc(C(C)(C)c5cccc(C(C)(C)c6ccc([O-])cc6)c5)cc4)c4ccc(C)cc4)cc3)cc2)cc1` [(R,R)-3o (diphenyl ether)]: 65%.
